Source: PMC10053770, “Assessment of the Pharmacokinetics, Disposition, and Duration of Action of the Tumour-Targeting Peptide CEND-1” (International Journal of Molecular Sciences, 2023)
Read-outs that look alike come from different tables or passages of the source.

Experiment: Clinical pharmacokinetics in patients with metastatic pancreatic ductal adenocarcinoma
Assay type: in vivo, human
Conditions: for Vd: 3.2 mg/kg, read-out: Vz
Procedure: In this study, CEND-1 PK data from up to 28 participants receiving either 1.6 mg/kg (n = 14) and 3.2 mg/kg (n = 14) in the expansion cohort were analysed. Details of this phase I clinical study, conducted in patients with metastatic pancreatic ductal adenocarcinoma receiving CEND-1 in combination with nab-paclitaxel and gemcitabine, are described in detail by Dean et al.. PK parameters were measured following CEND-1 monotherapy (run-in day 1) and combination therapy (cycle 1 day 1 and cycle 6 day 1, if applicable).
In the initial monotherapy run-in phase, single doses of CEND-1 were given one to seven days before the start of the combination chemotherapy. In the combination therapy phase, patients first received an intravenous infusion of nab-paclitaxel (125 mg/m^2) over 30 min (±3 min). CEND-1 was then given intravenously as a slow IV push over 1 min (±30 s). The intravenous infusion of gemcitabine (1000 mg/m^2 over 30 min (±3 min)) was started within 10 min of CEND-1 administration. On all occasions, plasma samples were collected from patients before the CEND-1 infusion and at 3 min (±1 min), 15 min (±3 min), 30 min (±3 min), 1 hour (±5 min), ¾ h (±10 min) and 6/8 h (±10 min) after completion of the infusion.
No formal sample size calculation was performed. Samples of 2–12 animals and 31 pancreatic cancer patients were considered acceptable to perform initial pharmacokinetic evaluations. The concentrations of CEND-1 were used to calculate PK parameters by employing a non-compartmental analysis (Phoenix^TM WinNonlin, version 6.1). The linear log trapezoidal algorithm, with a weighting of 1/Y*Y was used for parameter calculations. Mean PK parameters were calculated from individual animals in each treatment group. Concentrations below the LLOQ (if any) were excluded for the calculation of PK parameters. The mean values of PK parameters were calculated using Microsoft Excel version 2010.

[1] = pancreatic cancer patients, 3.2 mg/kg IV, plasma, Cycle 1 Day 1 with nab-paclitaxel+gemcitabine, mean, N=9
[2] = pancreatic cancer patients, 3.2 mg/kg IV, plasma, Cycle 1 Day 1 with nab-paclitaxel+gemcitabine, mean, N=13
[3] = pancreatic cancer patients, 3.2 mg/kg IV, plasma, Cycle 6 Day 1 with nab-paclitaxel+gemcitabine, N=1
[4] = pancreatic cancer patients, 3.2 mg/kg IV, plasma, Cycle 6 Day 1 with nab-paclitaxel+gemcitabine, mean, N=5
[5] = pancreatic cancer patients, 3.2 mg/kg IV, plasma, Run-In (monotherapy), mean, N=7
[6] = pancreatic cancer patients, 3.2 mg/kg IV, plasma, Run-In (monotherapy), mean, N=8

Vd (human, plasma, iv, pancreatic cancer patients, 3.2 mg/kg IV, plasma, Cycle 1 Day 1 with nab-paclitaxel+gemcitabine, mean, N=9): 0.263 L/kg
Vd (human, plasma, iv, pancreatic cancer patients, 3.2 mg/kg IV, plasma, Run-In (monotherapy), mean, N=7): 0.269 L/kg
Tmax (human, plasma, iv, patients, run-in day 1, 1.6 and 3.2 mg/kg, read-out: time of peak plasma concentration (first post-dose PK sampling timepoint) (converted)): 3 min
level at 8 h (human, plasma, patients, run-in day 1, 1.6 and 3.2 mg/kg IV, SD = 317.9, read-out: mean plasma concentration by 8 h post-dose): 439 ng/mL
AUC0-t (human, pancreatic cancer patients, 3.2 mg/kg IV, plasma, Cycle 6 Day 1 with nab-paclitaxel+gemcitabine, mean, N=5, read-out: AUC0-t): 30600 ng·h/mL
Cmax (human, pancreatic cancer patients, 3.2 mg/kg IV, plasma, Cycle 6 Day 1 with nab-paclitaxel+gemcitabine, mean, N=5, read-out: Cmax): 25800 ng/mL
Tmax (human, pancreatic cancer patients, 3.2 mg/kg IV, plasma, Cycle 6 Day 1 with nab-paclitaxel+gemcitabine, mean, N=5, read-out: Tmax): 3.78 min
AUC0-inf/D [1]: 9592 kg·ng·h/mL
AUC(0-inf) [1]: 30,690 h*ng/mL
CL [1]: 1.792 mL/min/kg
t1/2 [1]: 103.5 min
λlast [1]: 0.4082 h⁻¹
AUC0-t [2]: 28,610 h*ng/mL
AUC0-t/D [2]: 8942 kg·ng·h/mL
Cmax [2]: 24,050 ng/mL
Cmax/D [2]: 7514 kg*ng/mL/m
Tlast [2]: 5.767 h
Tmax [2]: 6.78 min
AUC0-inf/D [3]: 10,440 h*kg*ng/mL
AUC(0-inf) [3]: 33,400 h*ng/mL
CL [3]: 1.6 mL/min/kg
Vz [3]: 0.2209 L/kg
t1/2 [3]: 95.88 min
λlast [3]: 0.4338 h⁻¹
AUC0-t/D [4]: 9558 kg·ng·h/mL
Cmax/D [4]: 8050 kg*ng/mL/m
Tlast [4]: 4.897 h
AUC0-inf/D [5]: 10,800 h*kg*ng/mL
AUC(0-inf) [5]: 34,560 h*ng/mL
CL [5]: 1.63 mL/min/kg
t1/2 [5]: 117.4 min
λlast [5]: 0.3607 h⁻¹
AUC0-t [6]: 31,330 h*ng/mL
AUC0-t/D [6]: 9791 kg·ng·h/mL
Cmax [6]: 31,210 ng/mL
Tlast [6]: 6.725 h
Tmax [6]: 7.02 min
plasma half-life (patients, intravenous administration): ~120 min
SMILES: CC(=O)N[C@H]1CSSC[C@@H](C(N)=O)NC(=O)[C@H](CC(=O)O)NC(=O)[C@@H]2CCCN2C(=O)CNC(=O)[C@H](CCCCN)NC(=O)[C@H](CC(=O)O)NC(=O)CNC(=O)[C@H](CCCNC(=N)N)NC1=O [CEND-1]
